Results taken from US11034694B2, “Substituted isoindolin-1-ones and 2,3-dihydro-1H-pyrrolo[3,4-c]pyridin-1-ones as HPK1 antagonists” (Nimbus Saturn, Inc., priority 2019, dated 2021).
pIC50: −log10 of the molar value.

Target: HPK1 (Homo sapiens (Human), UniProt Q92918)
Assay: HPK1 biochemical enzyme assay (microfluidic mobility shift assay)
Settings: 1 mM ATP; 1.5 nM HPK1; 30 min preincubation, 60 min reaction; Caliper EZ Reader; read-out: HPK1 1000UMATP caliper IC50
Method: HPK1 biochemical enzyme assay: HPK1 enzyme inhibition was measured using a microfluidic mobility shift assay. […] Test compounds were titrated in ten point curves (top final assay concentration 3 μM), and preincubated with enzyme/substrate mix for 30 min prior to initiation of the reaction by addition of ATP (1 mM final concentration) and substrate (1 μM final concentration; Carna Biosciences) diluted in assay buffer supplemented by MgCl2 (final assay concentration of 5 mM). Following 60 min incubation at RT, the reaction was terminated by addition of 60 μl/well termination buffer (Carna Biosciences) and signal determination using a Caliper EZ Reader (Perkin Elmer, UK).

HPK1, sequence (Q92918 whole entry): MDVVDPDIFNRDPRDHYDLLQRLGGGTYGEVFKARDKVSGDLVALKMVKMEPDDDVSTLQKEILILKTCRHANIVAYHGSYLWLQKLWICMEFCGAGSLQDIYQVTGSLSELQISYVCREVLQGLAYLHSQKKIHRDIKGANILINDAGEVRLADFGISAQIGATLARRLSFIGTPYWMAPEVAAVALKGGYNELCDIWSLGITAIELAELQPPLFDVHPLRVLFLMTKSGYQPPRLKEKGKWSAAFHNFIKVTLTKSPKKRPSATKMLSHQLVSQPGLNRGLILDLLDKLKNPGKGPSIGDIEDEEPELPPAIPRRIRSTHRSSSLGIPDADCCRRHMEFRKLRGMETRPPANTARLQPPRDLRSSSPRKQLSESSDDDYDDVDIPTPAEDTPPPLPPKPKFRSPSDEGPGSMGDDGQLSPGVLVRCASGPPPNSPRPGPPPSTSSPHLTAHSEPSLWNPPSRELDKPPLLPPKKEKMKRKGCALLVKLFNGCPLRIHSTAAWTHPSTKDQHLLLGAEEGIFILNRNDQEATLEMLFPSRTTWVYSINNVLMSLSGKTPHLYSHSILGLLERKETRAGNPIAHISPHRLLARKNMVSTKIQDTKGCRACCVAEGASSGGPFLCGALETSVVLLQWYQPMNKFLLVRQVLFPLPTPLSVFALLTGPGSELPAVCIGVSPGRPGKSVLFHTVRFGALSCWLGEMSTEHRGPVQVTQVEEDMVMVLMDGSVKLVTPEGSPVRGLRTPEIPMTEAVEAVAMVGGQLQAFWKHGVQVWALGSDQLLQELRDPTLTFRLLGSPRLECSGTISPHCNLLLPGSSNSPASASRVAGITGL

## O=C1NCc2c(-c3cnc4cc(F)ccn34)ccc(Nc3ccc(N4CC5CCC(C4)C5O)cn3)c21 (stereo not shown) [I-405, 4-(7-fluoroimidazo [1,2-a]pyridin-3-yl)-7-((5-(8-hydroxy-3-azabicyclo [3.2.1]octan-3-yl)pyridin-2-yl)amino)isoin-dolin-1-one]
  pIC50: > 7.00
